A short description of data set [1]: Tissue and blood distribution of [3H]TPP compounds after iv tail vein injection. On the procedure: A sample of the [^3H]compound solution injected was retained to calculate the specific activity, which was subsequently used to determine the tissue content of the compound. At the indicated times after injection, the mice were killed by cervical dislocation and a blood sample of ˜100-200 μL was obtained by cardiac puncture. The organs were then removed, cleared of blood, transferred to pre-chilled Eppendorf tubes on ice, weighed and stored at −80° C. until processing. The tissues taken were: heart, kidneys, liver, brain, skeletal muscle (gastrocnemius) and white adipose tissue (subcutaneous). […] The mice were monitored after injection to ensure no pathology or distress and all procedures were carried out under the approval of the University of Otago animal ethics committee.
Extraction of [^3H] Compounds from Tissues Tissues were thawed at room temperature and transferred to 50 mL Falcon tubes. Ice-cold methanol 4° C.; 1 mL/100 mg tissue wet weight) was added to the tissue and the tissue homogenised using an Ultraturrax homogeniser (2×30 s on ice).
The homogenate was transferred in 1 mL batches to 1.5 mL Eppendorf tubes and centrifuged (10,000×g for 8 min at 4° C.). The methanol extract was decanted into a 20 ml glass scintillation vial (Wheaton) and the methanol evaporated under a stream of N2. Further ice-cold methanol (1 mL/100 mg) was added to the tissue homogenate pellets, vortexed for 1 min, centrifuged as above and the methanol extract decanted to a fresh 20 mL glass scintillation vial and evaporated. This procedure was repeated 3 more times to give 5 extracts per tissue sample. […] The specific activity of the injected [^3H] compound was then used to calculate the tissue content uptake as mol compound/g wet weight tissue. The half lives of compounds in organs were determined from the first order rate constants for loss of [^3H] compound from the organs, measured as the slope of ln[TPP compound] against time for the first 5 h after iv injection.

Data set [2] can be described thus: Octan-1-ol/PBS partition coefficient. The settings on record: determined in this study.
Data set [3] deals with liver and heart mitochondria. Briefly: IAM-TPP uptake by mitochondria in vivo (immunoblot with anti-TPP antiserum). Details: species or system mice. The settings on record: 500 nmol iv, mitochondria isolated 1 h later. On the procedure: (§1) After 15 min the mice were injected ip with DNP (200 or 300 μg/kg) or saline carrier and after a further 15 min later they were killed and the content of [^3H]FluoroUndecylTPP in the tissues determined. Data are means ± range for two mice per condition. B, IAM-TPP is shown being taken up in to mitochondria within a cell where it reacts with thiol proteins to form a thioether adduct that can then be detected by immunoblotting. C, Confocal image of IAM-TPP binding to mitochondria in cells. C2C12 cells were incubated with 1 μM IAM-TPP for 3 h±10 μM FCCP. The cells were then fixed and the location of the TPP moiety within the cells determined by labelling with antiserum against the TPP moiety, visualised by immunofluorescence confocal microscopy. […] The mitochondria (40 μg protein) were separated by SDS-PAGE and proteins that had been labelled with IAM-TPP were detected by immunoblotting using antiserum against the TPP moiety. […]
(§2) To assess uptake of IAM-TPP by mitochondria in vivo, mice were injected iv by the tail vein as above with 500 nmol IAM-TPP in 100 μL sterile PBS. One hour later the mice were killed by cervical dislocation and liver and heart mitochondria prepared by homogenisation followed by differential centrifugation and the protein content determined by the bicinchoninic acid assay using bovine serum albumin as a standard. […]

Data set [4] deals with mitochondrial protein thiols. Nature of the data set: Incubation of IAM-TPP with isolated mitochondria. To be noted: data not shown.
The test system of a further data set is C2C12 cells. Briefly: IAM-TPP uptake into mitochondria within cells (immunocytochemistry, confocal microscopy). In kind it is cell-based, mouse. The settings on record: 1 μM, 3 h, ±10 μM FCCP. The protocol:
as §1, §2

The conditions of data set [5]: published values; cited from earlier work.
For data set [6], the system named is mitochondrial membrane potential. Briefly: Effect of the uncoupler DNP on organ uptake of [3H]FluoroUndecylTPP in vivo. The arrangement: species or system mice. The settings on record: DNP 200 or 300 μg/kg ip 15 min after probe, organs taken 15 min later; dose dependent. The protocol:
as §1
Therefore it is likely that once the alkylTPP compounds are accumulated within tissues they are predominantly localised within mitochondria, driven by the membrane potential. To see if this was the case in these experiments, it was next determined if the uptake of the alkylTPP compounds in vivo was decreased by lowering the mitochondrial membrane potential. […]

A short description of data set [7]: Monitoring of mice for toxicity after iv injection of TPP cations. In kind it is in vivo. The settings on record: 100 nmol iv in mice.
Method: Female C57/BL6 mice (20-25 g) were maintained on a 12 h light/dark cycle with ad libitum access to standard lab chow and water. […] A sample of the [^3H]compound solution injected was retained to calculate the specific activity, which was subsequently used to determine the tissue content of the compound. At the indicated times after injection, the mice were killed by cervical dislocation and a blood sample of ˜100-200 μL was obtained by cardiac puncture. The organs were then removed, cleared of blood, transferred to pre-chilled Eppendorf tubes on ice, weighed and stored at −80° C. until processing. The tissues taken were: heart, kidneys, liver, brain, skeletal muscle (gastrocnemius) and white adipose tissue (subcutaneous). […] The mice were monitored after injection to ensure no pathology or distress and all procedures were carried out under the approval of the University of Otago animal ethics committee.
For data set [8] the following is noted: 24 h after iv injection, other studies; cited from earlier work.
[9] abbreviates: mice, 100 nmol iv bolus, first 5 h after injection.

The structures appear in SMILES notation. Read-outs that look alike come from different tables or passages of the source.

As to `C[P+](c1ccccc1)(c1ccccc1)c1ccccc1` [TPMP], in data set [1] (setting [9]), the “half life for loss from the heart” value is reported as about 2 h, the “half life for loss from the kidneys” value is about 2 h and the “half life for loss from the liver” value is about 3 h. Moreover, in [1] (mice, 100 nmol iv bolus, estimate only), the “half life for clearance from fat and muscle” value is 1 to 2 h.
`CS(=O)(=O)[O-].O=C(CI)NCCCCC[P+](c1ccccc1)(c1ccccc1)c1ccccc1` [IAM-TPP] returned an Octanol/PBS partition coefficient in data set [2] of 19±1. Moreover, in data set [3], the “labelling of mitochondrial proteins in vivo” value was “labelling of heart and liver mitochondrial proteins”. The “reaction with protein thiols of isolated mitochondria” value in data set [4] was “rapidly reacted with protein thiols”. In addition, the localisation within cells entry with C2C12 cells is listed as “uncoupler-sensitive localisation of IAM-TPP within mitochondria”.
As to `CCCCCCCCCC[P+](c1ccccc1)(c1ccccc1)c1ccccc1` [DecylTPP], the Octanol/PBS partition coefficient in [5] is listed as 5000. In addition, in [1] (mouse, in vivo, iv), the “half life for clearance from fat and muscle” value lay in the range of 7 to 12 h; the “half life for loss from the heart” value is on record as about 15 h; the “half life for loss from the kidneys” value is on record as about 3 h; the “half life for loss from the liver” value is reported as about 3 h.
For `CS(=O)(=O)[O-].FCCCCCCCCCCC[P+](c1ccccc1)(c1ccccc1)c1ccccc1` [FluoroUndecylTPP, 11-fluoroundecyltriphenylphosphonium mesylate], the “decrease of uptake into the organs by DNP” value in data set [6] was “up to 40%”. In addition, in [1] (setting [9]), the “half life for loss from the heart” value is about 21 h, the “half life for loss from the kidneys” value is listed as about 3 h and the “half life for loss from the liver” value is reported as about 3 h. Besides, the “enhancement of organ/blood concentration ratio relative to TPMP” value in data set [1] (mice, iv) is “over a hundred-fold”.
On to `COC1=C(OC)C(=O)C(CCCCCCCCCC[P+](c2ccccc2)(c2ccccc2)c2ccccc2)=C(C)C1=O` [MitoQ], for which the Octanol/PBS partition coefficient in data set [5] is 2760. The “toxicity of the injected amount” value in data set [7] is on record as “non-toxic”. Moreover, the MitoQ eliminated in [8] is given as about 80%. Further, in data set [1] (1 h after 100 nmol iv), the “uptake by muscle and adipose tissue” value is reported as “lower uptake”; the “uptake by the brain” value is “very little uptake”; the “uptake by the heart” value is given as “less extensive uptake”; the “uptake by the liver and kidneys” value was “extensive uptake”. In addition, in [1] (1 h after iv injection), the “heart/blood ratio, in ratio (TPMP = 1)” value was 11 and the “uptake into the heart, ratio (TPMP = 1)” value is recorded as 6. Moreover, in [1] (5 h after iv injection), the “heart/blood ratio, in ratio (TPMP = 1)” value is given as 26 and the “uptake into the heart, ratio (TPMP = 1)” value came to 10. Besides, in [1] (setting [9]), the “half life for loss from the heart” value is about 15 h, the “half life for loss from the kidneys” value is about 4 h and the “half life for loss from the liver” value is given as about 2 h. The “time of maximum uptake into tissues” value in [1] (mice, 100 nmol iv, earliest time measurable) worked out at 5 min.

(Values after patent US20130064768A1, “LIPOPHILIC CATIONIC PROBE FOR PET-IMAGING” (Medical Research Council, priority 2010, published 2013).)
